Entries after “also recorded” stand apart in the source; their conditions may differ. Counter-ions that a name gives are not always drawn.
Columns and labels:
HepG2 [1] = details: in vitro; cited from earlier work
[2] = in particular hepatocellular carcinoma; cited from earlier work
HuH7 [3] = details: in vitro; cited from earlier work
human liver tumor cells = details: immunocompromised mice; cited from earlier work
HepG2 line = details: for growth in volume of grafted tumors compared to placebo control group: FIG. 1
Experimental: In vivo anti-tumor activity of imeglimin compared to that of metformin, alone or in combination with sorafenib, on subcutaneous xenograft models of the CHC HepG2 line in 6 week old female mice with a BALB/c nude genetic background (Harlan).
Two million cells of the HepG2 line are injected into the left side of each mouse in a volume of 100 μl (50 μl PBS-50 μl matrigel). Mice developing a palpable tumor are randomized into 7 groups of
treatment of 14 mice according to the following design: placebo, imeglimin 75 mg/kg/day, imeglimin 150 mg/kg/day, metformin 75 mg/kg/day, sorafenib 40 mg/kg/day, imeglimin 75 mg/kg/day+sorafenib 40 mg/kg/day, metformin 75 mg/kg/day+sorafenib 40 mg/kg/day.
Metformin and imeglimin are administered in drinking water, sorafenib is administered by oral gavage. Treatment begins on the day of randomization.
The treatments were administered for 63 days. The evolution curves of the tumor volumes, as well as those of the weight of the animals, were analyzed during this period. The appearance of tumors and organs has been the subject of a macroscopic anatomic-pathological analysis.

hepatocellular carcinoma = details: cited from earlier work
[4] = seven Phase 1 studies, 216 subjects; cited from earlier work
[5] = seven Phase 2 studies, 611 patients; cited from earlier work
mitochondrial I complex = details: cited from earlier work
HuH7 [6] = test: MTS Promega cell proliferation assay, HuH7; type: cell-based, human
Experimental: (§1) In vitro anti-proliferative effect of imeglimin compared to that of metformin in 2 models of human hepatocellular carcinoma (HCC). Determination of IC50 (median inhibitory concentration) by the MTS Promega™ cell proliferation assay (CellTiter 96™ AQueous Nonradioactive Cell Proliferation Assay Kit).
(§2) Different mM concentrations (0, 0.1, 0.25, 0.5, 1.0, 2.5, 5.0, 7.5, 10, 25, 50, 100) of imeglimin and metformin were tested in vitro on two human CHC cell lines, HepG2 and HuH7, over a period of 6 days.

[7] = STZ diabetic rat; 35 days; 50 and 100 mg/kg/day; cited from earlier work
[8] = cited from earlier work
HepG2 [9] = test: MTS Promega cell proliferation assay, HepG2; type: cell-based, human; details: period of 6 days
Experimental: as §1, §2

[10] = 1500 mg twice daily, similar to 850 mg of metformin twice daily

## CN(C)C(=N)N=C(N)N [metformin]
HepG2 [1]
  cell growth inhibitory activity: has cell growth inhibitory activity
[2]
  cancers in treated patients with type 2 diabetes versus other anti-diabetic drugs: fewer cancers
HuH7 [3]
  cell growth inhibitory activity: has cell growth inhibitory activity
Human liver tumor cells
  anti-cancer activity: exhibits anti-cancer activity
HepG2 line; 63 days of treatment
  growth in volume of grafted tumors compared to placebo control group: slow down the growth in volume of grafted tumors

## CNC(=O)c1cc(Oc2ccc(NC(=O)Nc3ccc(Cl)c(C(F)(F)F)c3)cc2)ccn1 [sorafenib, reference compound]
Hepatocellular carcinoma; patients with advanced hepatocellular carcinoma
  median survival time: 10.7 months
Hepatocellular carcinoma; sorafenib group
  most important side effects: Diarrhea, weight loss, hand-foot syndrome and hypophosphatemia
HepG2 line; 63 days of treatment
  growth in volume of grafted tumors compared to placebo control group: slow down the growth in volume of grafted tumors
HepG2 line; sorafenib 40 mg/kg/day alone or with imeglimin 75 mg/kg/day
  anti-angiogenic effect, observation at sacrifice: exerts its anti-angiogenic properties

## C[C@H]1N=C(N(C)C)N=C(N)N1 [imeglimin, (6R)-(+)-4-dimethylamino-2-imino-6-methyl-1,2,5,6-tetrahydro-1,3,5-triazine hydrochloride]
[4]
  administration safety and tolerance: excellent administration safety and tolerance
[5]
  tolerance and safety of use: excellent tolerance and safety of use similar to those of the placebo
Mitochondrial I complex
  inhibition of mitochondrial I complex: does not inhibit
HuH7 [6]
  effect on HuH7 line compared with HepG2 line: much more marked
HuH7 [6]; period of 6 days
  change of inhibitory effect with time: increases with time
[7]
  HbA1c: significantly decreased
  fasting blood glucose: significantly decreased
[8]; [10]
  fasting glucose levels: improves
  hemoglobin A1c: improves
[8]; diabetic patients
  tolerance profile compared with metformin: greater than that of metformin
HepG2 [9]
  change of inhibitory effect with time: increases with time
HepG2 line; 75 mg/kg/day to 150 mg/kg/day, hydrochloride
  dose effect on tumor growth: dose-dependent inhibitory effect on tumor growth; also recorded: increases with the doubling of doses
HepG2 line; 63 days of treatment
  mean weight of the animals: did not change
  toxicity of treatment: did not prove to be toxic
  growth in volume of grafted tumors compared to placebo control group: slow down the growth in volume of grafted tumors
HepG2 line; imeglimin 150 mg/kg/day vs metformin 75 mg/kg/day (equipotent doses), hydrochloride
  effect on tumor volume compared with metformin: higher than metformin; also recorded: significantly greater than that of metformin
HepG2 line; imeglimin 150 mg/kg/day vs sorafenib 40 mg/kg/day, hydrochloride
  effect on tumor volume compared with sorafenib: not significantly different from sorafenib; also recorded: does not have a significantly different effect
